According to ChEMBL document CHEMBL4622979, “Non-rigid Diarylmethyl Analogs of Baloxavir as Cap-Dependent Endonuclease Inhibitors of Influenza Viruses” (J Med Chem, 2020):

Tests used:
[1] = Cmax in CD1 mouse lung assessed as baloxavir acid level at 15 mg/kg, po administered as single dose by LC-MS/MS analysis; assay type: ADME, organism-based; design: dose 15 mg/kg, route oral; details: in vivo
[2] = Elimination rate constant in CD1 mouse heart assessed as baloxavir acid level at 15 mg/kg, po administered as single dose measured up to 24 hrs by LC-MS/MS analysis; assay type: ADME, organism-based; details: in vivo
[3] = Cmax in CD1 mouse heart assessed as baloxavir acid level at 15 mg/kg, po administered as single dose measured up to 24 hrs by LC-MS/MS analysis; assay type: ADME, organism-based; design: dose 15 mg/kg, route oral; details: in vivo
[4] = AUCinfinity in CD1 mouse heart assessed as baloxavir acid level at 15 mg/kg, po administered as single dose measured up to 24 hrs by LC-MS/MS analysis; assay type: ADME, organism-based; design: dose 15 mg/kg, time infinity, route oral; details: in vivo
[5] = Ratio of AUClast in CD1 mouse heart to plasma assessed as baloxavir acid level at 15 mg/kg, po administered as single dose measured up to 24 hrs by LC-MS/MS analysis; assay type: ADME, organism-based; details: other tissue
[6] = AUClast in CD1 mouse lung assessed as baloxavir acid level at 15 mg/kg, po administered as single dose measured up to 24 hrs by LC-MS/MS analysis; assay type: ADME, organism-based; details: in vivo
[7] = Cmax in CD1 mouse small intestine assessed as baloxavir acid level at 15 mg/kg, po administered as single dose measured up to 24 hrs by LC-MS/MS analysis; assay type: ADME, organism-based; design: dose 15 mg/kg, route oral; details: in vivo
[8] = Ratio of AUClast in CD1 mouse small intestine to plasma assessed as baloxavir acid level at 15 mg/kg, po administered as single dose measured up to 24 hrs by LC-MS/MS analysis; assay type: ADME, organism-based; details: other tissue
[9] = Tmax in CD1 mouse brain assessed as baloxavir acid level at 15 mg/kg, po administered as single dose measured up to 24 hrs by LC-MS/MS analysis; assay type: ADME, organism-based; details: in vivo
[10] = Ratio of AUClast in CD1 mouse spleen to plasma assessed as baloxavir acid level at 15 mg/kg, po administered as single dose measured up to 24 hrs by LC-MS/MS analysis; assay type: ADME, organism-based; details: other tissue
[11] = Tmax in CD1 mouse muscle assessed as baloxavir acid level at 15 mg/kg, po administered as single dose measured up to 24 hrs by LC-MS/MS analysis; assay type: ADME, organism-based, Muscle tissue; details: in vivo
[12] = Acute toxicity in CD1 mouse assessed as effect on body weight at 2000 mg/kg, po measured for 2 weeks; assay type: organism-based; details: in vivo, 336 h
[13] = Oral bioavailability in CD1 mouse assessed as (12aR)-12-(Diphenylmethyl)-7-hydroxy-3,4,12,12a-tetrahydro-1H-[1,4]oxazino[3,4-c]pyrido[2,1-f ][1,2,4]triazine-6,8-dione level at 15 mg/kg administered as single dose by LC-MS/MS analysis; assay type: ADME, organism-based; details: in vivo
[14] = Cmax in CD1 mouse blood assessed as (12aR)-12-(Diphenylmethyl)-7-hydroxy-3,4,12,12a-tetrahydro-1H-[1,4]oxazino[3,4-c]pyrido[2,1-f ][1,2,4]triazine-6,8-dione level at 15 mg/kg, po administered as single dose measured up to 24 hrs by LC-MS/MS analysis; assay type: ADME, organism-based; design: dose 15 mg/kg, route oral; details: in vivo
[15] = AUCinfinity in CD1 mouse blood assessed as (12aR)-12-(Diphenylmethyl)-7-hydroxy-3,4,12,12a-tetrahydro-1H-[1,4]oxazino[3,4-c]pyrido[2,1-f ][1,2,4]triazine-6,8-dione level at 15 mg/kg, po administered as single dose measured up to 24 hrs by LC-MS/MS analysis; assay type: ADME, organism-based; design: dose 15 mg/kg, time infinity, route oral; details: in vivo
[16] = MRTlast in CD1 mouse blood assessed as (12aR)-12-(Diphenylmethyl)-7-hydroxy-3,4,12,12a-tetrahydro-1H-[1,4]oxazino[3,4-c]pyrido[2,1-f ][1,2,4]triazine-6,8-dione level at 15 mg/kg, po administered as single dose measured up to 24 hrs by LC-MS/MS analysis; assay type: ADME, organism-based; details: in vivo
[17] = Half life in CD1 mouse liver assessed as (12aR)-12-(Diphenylmethyl)-7-hydroxy-3,4,12,12a-tetrahydro-1H-[1,4]oxazino[3,4-c]pyrido[2,1-f ][1,2,4]triazine-6,8-dione level at 15 mg/kg, po administered as single dose measured up to 24 hrs by LC-MS/MS analysis; assay type: ADME, organism-based; details: in vivo
[18] = Ratio of AUClast in CD1 mouse kidney to plasma assessed as (12aR)-12-(Diphenylmethyl)-7-hydroxy-3,4,12,12a-tetrahydro-1H-[1,4]oxazino[3,4-c]pyrido[2,1-f ][1,2,4]triazine-6,8-dione level at 15 mg/kg, po administered as single dose measured up to 24 hrs by LC-MS/MS analysis; assay type: ADME, organism-based; details: other tissue
[19] = Half life in CD1 mouse heart assessed as (12aR)-12-(Diphenylmethyl)-7-hydroxy-3,4,12,12a-tetrahydro-1H-[1,4]oxazino[3,4-c]pyrido[2,1-f ][1,2,4]triazine-6,8-dione level at 15 mg/kg, po administered as single dose measured up to 24 hrs by LC-MS/MS analysis; assay type: ADME, organism-based; details: in vivo
[20] = Elimination rate constant in CD1 mouse lung assessed as (12aR)-12-(Diphenylmethyl)-7-hydroxy-3,4,12,12a-tetrahydro-1H-[1,4]oxazino[3,4-c]pyrido[2,1-f ][1,2,4]triazine-6,8-dione level at 15 mg/kg, po administered as single dose measured up to 24 hrs by LC-MS/MS analysis; assay type: ADME, organism-based; details: in vivo
[21] = Ratio of AUClast in CD1 mouse lung to plasma assessed as (12aR)-12-(Diphenylmethyl)-7-hydroxy-3,4,12,12a-tetrahydro-1H-[1,4]oxazino[3,4-c]pyrido[2,1-f ][1,2,4]triazine-6,8-dione level at 15 mg/kg, po administered as single dose measured up to 24 hrs by LC-MS/MS analysis; assay type: ADME, organism-based; details: other tissue
[22] = MRTlast in CD1 mouse trachea assessed as (12aR)-12-(Diphenylmethyl)-7-hydroxy-3,4,12,12a-tetrahydro-1H-[1,4]oxazino[3,4-c]pyrido[2,1-f ][1,2,4]triazine-6,8-dione level at 15 mg/kg, po administered as single dose measured up to 24 hrs by LC-MS/MS analysis; assay type: ADME, organism-based; details: in vivo
[23] = Half life in CD1 mouse brain assessed as (12aR)-12-(Diphenylmethyl)-7-hydroxy-3,4,12,12a-tetrahydro-1H-[1,4]oxazino[3,4-c]pyrido[2,1-f ][1,2,4]triazine-6,8-dione level at 15 mg/kg, po administered as single dose measured up to 24 hrs by LC-MS/MS analysis; assay type: ADME, organism-based; details: in vivo
[24] = AUCinfinity in CD1 mouse brain assessed as (12aR)-12-(Diphenylmethyl)-7-hydroxy-3,4,12,12a-tetrahydro-1H-[1,4]oxazino[3,4-c]pyrido[2,1-f ][1,2,4]triazine-6,8-dione level at 15 mg/kg, po administered as single dose measured up to 24 hrs by LC-MS/MS analysis; assay type: ADME, organism-based; design: dose 15 mg/kg, time infinity, route oral; details: in vivo
[25] = Elimination rate constant in CD1 mouse muscle assessed as (12aR)-12-(Diphenylmethyl)-7-hydroxy-3,4,12,12a-tetrahydro-1H-[1,4]oxazino[3,4-c]pyrido[2,1-f ][1,2,4]triazine-6,8-dione level at 15 mg/kg, po administered as single dose measured up to 24 hrs by LC-MS/MS analysis; assay type: ADME, organism-based, Muscle tissue; details: in vivo

COC(=O)OCOc1c2n(ccc1=O)N([C@@H]1c3ccccc3SCc3c1ccc(F)c3F)[C@@H]1COCCN1C2=O [BALOXAVIR MARBOXIL]
Cmax [1]: 1517 ng/g | Kel [2]: 0.2 h⁻¹ | Cmax [3]: 1188 ng/g | AUC [4]: 9025 ng·h/g | Ratio AUC [5]: 19.8 | AUClast [6]: 8959 ng·h/g | Cmax [7]: 53413 ng/g | Ratio AUC [8]: 234 | Tmax [9]: 2 h | Ratio AUC [10]: 7.99 | Tmax [11]: 2 h

COC(=O)OCOc1c2n(ccc1=O)N(C(c1ccccc1)c1ccccc1)[C@@H]1COCCN1C2=O
Activity [12]: Non-Toxic | F [13]: 62.1% | Cmax [14]: 951 ng/g | AUC [15]: 2861 ng·h/g | MRTlast [16]: 1.78 h | t1/2 [17]: 2.34 h | Ratio AUC [18]: 5.5 | t1/2 [19]: 1.69 h | Kel [20]: 0.44 h⁻¹ | Ratio AUC [21]: 2.53 | MRTlast [22]: 3.55 h | t1/2 [23]: 8.18 h | AUC [24]: 1238 ng·h/g | Kel [25]: 0.4 h⁻¹
